# In ChEMBL document CHEMBL3885861, “Open TG-GATES”:
# Species: Rattus norvegicus
# Assay: Open TG-GATES - Regimen: Daily Repeat
# Format: toxicity, organism-based, Sprague-Dawley
# Design: regimen Daily Repeat, gender Male, age 6 weeks
# Details: in vivo, po, 15 mg/kg, route gavage, dose level Low; for APTT / Bas / Eos / Fbg / Hb / Ht / Lym / MCH / MCHC / MCV / Mono / Neu / PT / Plat / RBC / Ret / WBC: tissue Blood; for KIDNEY_L / KIDNEY_R / KIDNEY_TOTAL: tissue Kidney; for LIVER: tissue Liver; for A/G / ALP / ALT / AST / BUN / CRE / Ca / Cl / DBIL / GLC / IP / K / LDH / Na / PL / RALB / TBIL / TC / TG / TP / gamma-GTP: tissue Plasma
smiles,measurement,setting,value
Nc1nc(N)c2nc(-c3ccccc3)c(N)nc2n1,TERMINAL_BW,"72 h, time 3 day",248.4 g
same,APTT,"72 h, time 3 day",16.1 s
same,Bas,"72 h, time 3 day",0.2%
same,Eos,"72 h, time 3 day",0.6%
same,Fbg,"72 h, time 3 day",310.8 mg/dL
same,Hb,"72 h, time 3 day",14.1 g/dL
same,Ht,"72 h, time 3 day",41.7%
same,Lym,"72 h, time 3 day",78.4%
same,MCH,"72 h, time 3 day",21.8 pg
same,MCHC,"72 h, time 3 day",33.8%
same,MCV,"72 h, time 3 day",64.7 fL
same,Mono,"72 h, time 3 day",2.2%
same,Neu,"72 h, time 3 day",18.2%
same,PT,"72 h, time 3 day",13.8 s
same,Plat,"72 h, time 3 day",132.9 x10_4/uL
same,RBC,"72 h, time 3 day",645.4 x10_4/ul
same,Ret,"72 h, time 3 day",6.8%
same,WBC,"72 h, time 3 day",109.4 x10_2/uL
same,KIDNEY_L,"72 h, time 3 day",1.1 g
same,KIDNEY_R,"72 h, time 3 day",1 g
same,KIDNEY_TOTAL,"72 h, time 3 day",2.1 g
same,LIVER,"72 h, time 3 day",11.6 g
same,A/G,"72 h, time 3 day",0.9
same,ALP,"72 h, time 3 day",1861.8 IU/L
same,ALT,"72 h, time 3 day",41.4 IU/L
same,AST,"72 h, time 3 day",66 IU/L
same,BUN,"72 h, time 3 day",14.8 mg/dL
same,CRE,"72 h, time 3 day",0.2 mg/dL
same,Ca,"72 h, time 3 day",11 mg/dL
same,Cl,"72 h, time 3 day",105.4 meq/L
same,DBIL,"72 h, time 3 day",0.01 mg/dL
same,GLC,"72 h, time 3 day",175.2 mg/dL
same,IP,"72 h, time 3 day",7.8 mg/dL
same,K,"72 h, time 3 day",3.8 meq/L
same,LDH,"72 h, time 3 day",67.2 IU/L
same,Na,"72 h, time 3 day",142.8 meq/L
same,PL,"72 h, time 3 day",159.4 mg/dL
same,RALB,"72 h, time 3 day",2.6 g/dL
same,TBIL,"72 h, time 3 day",0.042 mg/dL
same,TC,"72 h, time 3 day",81.4 mg/dL
same,TG,"72 h, time 3 day",115 mg/dL
same,TP,"72 h, time 3 day",5.6 g/dL
same,gamma-GTP,"72 h, time 3 day",1.2 IU/L
same,TERMINAL_BW,"[…], time 7 day",282.4 g
same,TERMINAL_BW,"[…], time 14 day",340.6 g
same,TERMINAL_BW,"[…], time 28 day",410.6 g
same,APTT,"[…], time 7 day",16.7 s
same,Bas,"[…], time 7 day",0%
same,Eos,"[…], time 7 day",1%
same,Fbg,"[…], time 7 day",313.2 mg/dL
same,Hb,"[…], time 7 day",13.7 g/dL
same,Ht,"[…], time 7 day",42.1%
same,Lym,"[…], time 7 day",77.2%
same,MCH,"[…], time 7 day",20.1 pg
same,MCHC,"[…], time 7 day",32.4%
same,MCV,"[…], time 7 day",61.9 fL
same,Mono,"[…], time 7 day",2.4%
same,Neu,"[…], time 7 day",19.2%
same,PT,"[…], time 7 day",13.9 s
same,Plat,"[…], time 7 day",123.2 x10_4/uL
same,RBC,"[…], time 7 day",679.2 x10_4/ul
same,Ret,"[…], time 7 day",5.5%
same,WBC,"[…], time 7 day",88.7 x10_2/uL
same,APTT,"[…], time 14 day",18 s
same,Bas,"[…], time 14 day",0%
same,Eos,"[…], time 14 day",1%
same,Fbg,"[…], time 14 day",295.2 mg/dL
same,Hb,"[…], time 14 day",14.5 g/dL
same,Ht,"[…], time 14 day",44.4%
same,Lym,"[…], time 14 day",79.2%
same,MCH,"[…], time 14 day",20.2 pg
same,MCHC,"[…], time 14 day",32.7%
same,MCV,"[…], time 14 day",61.6 fL
same,Mono,"[…], time 14 day",2.2%
same,Neu,"[…], time 14 day",17.2%
same,PT,"[…], time 14 day",13.1 s
same,Plat,"[…], time 14 day",114.4 x10_4/uL
same,RBC,"[…], time 14 day",720.6 x10_4/ul
same,Ret,"[…], time 14 day",4.2%
same,WBC,"[…], time 14 day",94.6 x10_2/uL
same,APTT,"[…], time 28 day",18.6 s
same,Bas,"[…], time 28 day",0.2%
same,Eos,"[…], time 28 day",1.2%
same,Fbg,"[…], time 28 day",294.8 mg/dL
same,Hb,"[…], time 28 day",15.6 g/dL
same,Ht,"[…], time 28 day",46.4%
same,Lym,"[…], time 28 day",78.6%
same,MCH,"[…], time 28 day",18.9 pg
same,MCHC,"[…], time 28 day",33.6%
same,MCV,"[…], time 28 day",56.3 fL
same,Mono,"[…], time 28 day",1.8%
same,Neu,"[…], time 28 day",17.6%
same,PT,"[…], time 28 day",13.4 s
same,Plat,"[…], time 28 day",111.2 x10_4/uL
same,RBC,"[…], time 28 day",825 x10_4/ul
same,Ret,"[…], time 28 day",2.1%
same,WBC,"[…], time 28 day",89.6 x10_2/uL
same,KIDNEY_L,"[…], time 7 day",1.2 g
same,KIDNEY_R,"[…], time 7 day",1.1 g
same,KIDNEY_TOTAL,"[…], time 7 day",2.3 g
same,KIDNEY_L,"[…], time 14 day",1.3 g
same,KIDNEY_R,"[…], time 14 day",1.2 g
same,KIDNEY_TOTAL,"[…], time 14 day",2.5 g
same,KIDNEY_L,"[…], time 28 day",1.4 g
same,KIDNEY_R,"[…], time 28 day",1.4 g
same,KIDNEY_TOTAL,"[…], time 28 day",2.8 g
same,LIVER,"[…], time 7 day",13.1 g
same,LIVER,"[…], time 14 day",14.6 g
same,LIVER,"[…], time 28 day",15.5 g
same,A/G,"[…], time 7 day",0.8
same,ALP,"[…], time 7 day",1439.8 IU/L
same,ALT,"[…], time 7 day",39.8 IU/L
same,AST,"[…], time 7 day",62.6 IU/L
same,BUN,"[…], time 7 day",14.8 mg/dL
same,CRE,"[…], time 7 day",0.2 mg/dL
same,Ca,"[…], time 7 day",11 mg/dL
same,Cl,"[…], time 7 day",104.6 meq/L
same,DBIL,"[…], time 7 day",0.016 mg/dL
same,GLC,"[…], time 7 day",185 mg/dL
same,IP,"[…], time 7 day",7.9 mg/dL
same,K,"[…], time 7 day",4 meq/L
same,LDH,"[…], time 7 day",60.4 IU/L
same,Na,"[…], time 7 day",143.4 meq/L
same,PL,"[…], time 7 day",155.6 mg/dL
same,RALB,"[…], time 7 day",2.6 g/dL
same,TBIL,"[…], time 7 day",0.074 mg/dL
same,TC,"[…], time 7 day",75.2 mg/dL
same,TG,"[…], time 7 day",137 mg/dL
same,TP,"[…], time 7 day",5.7 g/dL
same,gamma-GTP,"[…], time 7 day",1.2 IU/L
same,A/G,"[…], time 14 day",0.9
same,ALP,"[…], time 14 day",1252.8 IU/L
same,ALT,"[…], time 14 day",40.2 IU/L
same,AST,"[…], time 14 day",62.6 IU/L
same,BUN,"[…], time 14 day",16.2 mg/dL
same,CRE,"[…], time 14 day",0.2 mg/dL
same,Ca,"[…], time 14 day",10.4 mg/dL
same,Cl,"[…], time 14 day",105 meq/L
same,DBIL,"[…], time 14 day",0.012 mg/dL
same,GLC,"[…], time 14 day",180.2 mg/dL
same,IP,"[…], time 14 day",7.5 mg/dL
same,K,"[…], time 14 day",3.8 meq/L
same,LDH,"[…], time 14 day",58 IU/L
same,Na,"[…], time 14 day",143.4 meq/L
same,PL,"[…], time 14 day",141.6 mg/dL
same,RALB,"[…], time 14 day",2.7 g/dL
same,TBIL,"[…], time 14 day",0.068 mg/dL
same,TC,"[…], time 14 day",67.4 mg/dL
same,TG,"[…], time 14 day",111.6 mg/dL
same,TP,"[…], time 14 day",5.8 g/dL
same,gamma-GTP,"[…], time 14 day",1 IU/L
same,A/G,"[…], time 28 day",0.8
same,ALP,"[…], time 28 day",1186.2 IU/L
same,ALT,"[…], time 28 day",35.6 IU/L
same,AST,"[…], time 28 day",63.4 IU/L
same,BUN,"[…], time 28 day",16.2 mg/dL
same,CRE,"[…], time 28 day",0.3 mg/dL
same,Ca,"[…], time 28 day",10.7 mg/dL
same,Cl,"[…], time 28 day",104.6 meq/L
same,DBIL,"[…], time 28 day",0.01 mg/dL
same,GLC,"[…], time 28 day",187.6 mg/dL
same,IP,"[…], time 28 day",6.6 mg/dL
same,K,"[…], time 28 day",3.9 meq/L
same,LDH,"[…], time 28 day",54.4 IU/L
same,Na,"[…], time 28 day",143 meq/L
same,PL,"[…], time 28 day",140.4 mg/dL
same,RALB,"[…], time 28 day",2.7 g/dL
same,TBIL,"[…], time 28 day",0.06 mg/dL
same,TC,"[…], time 28 day",69.6 mg/dL
same,TG,"[…], time 28 day",123 mg/dL
same,TP,"[…], time 28 day",6 g/dL
same,gamma-GTP,"[…], time 28 day",1 IU/L
